The values that follow come from patent US11267806B2, “Indazole compound for use in inhibiting kinase activity, composition and application thereof” (Shenzhen TargetRx, Inc., priority 2017, dated 2022).

Data set [1] is described as follows: Liver microsomal metabolism assay, rat. The following applies: SD, pH 7.4, rat liver microsomes 0.5 mg/mL, compound 1 μM, 37° C.; for microsomal CLint at 1 μM: read-out: Rat liver microsome assay CLint; for half-life at 1 μM: read-out: Rat liver microsome assay t1/2. It counts as in vitro ADME. As for the experimental part:
(§1) (3) Liver Microsomal Metabolism Assay
(§2) […]; Coenzyme (NADPH/NADH): 1 mM, Sigma Life Science; Magnesium chloride: 5 mM, 100 mM phosphate buffer (pH 7.4).
(§3) Preparation of stock solutions: Powder of the compounds were accurately weighed and dissolved in DMSO to 5 mM.
(§4) Preparation of phosphate buffer (100 mM, pH7.4): A pre-prepared 0.5M potassium dihydrogen phosphate (150 mL) was mixed with 0.5M dibasic potassium phosphate (700 mL). The pH of the mixture was adjusted to 7.4 with 0.5M dibasic potassium phosphate solution. The mixture was diluted 5-fold with ultrapure water before use, and magnesium chloride was added to obtain a phosphate buffer (100 mM) containing 100 mM potassium phosphate, 3.3 mM magnesium chloride, pH 7.4.
(§5) A NADPH regeneration system solution (containing 6.5 mM NADP, 16.5 mM G-6-P, 3 U/mL G-6-P D, 3.3 mM magnesium chloride) was prepared and placed on wet ice prior to use.
(§6) Incubation of the samples: The stock solutions of the respective compounds were respectively diluted to 0.25 mM with an aqueous solution containing 70% acetonitrile, and used as a working solution, ready for use. 398 μL of the dilution of human liver microsomes or rat liver microsomes were added to 96-well incubation plates (N=2), respectively, and 2 μL of 0.25 mM working solution was added and mixed.
(§7) Metabolic stability assay: 300 μL of pre-chilled stop solution was added to each well of 96-well deep well plates and placed on ice as stop plates. The 96-well incubation plates and NADPH regeneration system were placed in a 37° C. water bath box, shaken at 100 rpm and pre-incubated for 5 min. 80 μL of incubation solution was taken out from each well of the incubation plates and added to the stop plates, mixed, and replenished with 20 μL of NADPH regeneration system solution as a 0-min sample. 80 μL of NADPH regeneration system solution was added to each well of the incubation plates to start the reaction and start counting. […] Separately, 100 μL of the reaction solutions was taken at 10, 30, and 90 min reaction, respectively, added to stop plates, and vortexed for 3 minutes to terminate the reaction. The stop plates were centrifuged at 5000×g at 4° C. for 10 min. 100 μL of the supernatant was added to a 96-well plate to which 100 μL of distilled water was previously added, mixed, and analyzed by LC-MS/MS.
(§8) Data analysis: The peak areas of the corresponding compounds and internal standard were detected by LC-MS/MS system, and the ratio of the peak area of the compounds to the internal standard was calculated.
(§9) The metabolic stability of the compounds in human and rat liver microsomes was evaluated by simultaneously testing and comparing the compounds disclosed herein and the non-deuterated compound. […]

Data set [2] is described as follows: Liver microsomal metabolism assay, human. It counts as in vitro ADME. The following applies: pH 7.4, human liver microsomes 0.5 mg/mL, compound 1 μM, 37° C.; for microsomal CLint at 1 μM: read-out: Human liver microsome assay CLint; for half-life at 1 μM: read-out: Human liver microsome assay t1/2. As for the experimental part: as §1, §2, §3, §4, §5, §6, §7, §8, §9
For orientation: Liver microsomes are a subcellular fraction often used to study metabolism.

The next data set deals with Ba/F3 EML-ALK cells. Kind of data set: Cytotoxicity assay (cell viability, CellTiter-Glo), Ba/F3 EML-ALK. It counts as cell-based. The following applies: Mus musculus, BaF3, 72 h; cell viability, 3 days incubation; read-out: Ba/F3 EML-ALK IC50. (In general: ATP-based viability assays read luminescence as a measure of living cells.)
Data set [3] concerns Ba/F3 EML-ALK^L1196M cells. As to the kind of experiment: Cytotoxicity assay (cell viability, CellTiter-Glo), Ba/F3 EML-ALK L1196M. It counts as cell-based. The following applies: Mus musculus, BaF3, 72 h; cell viability, 3 days incubation; read-out: Ba/F3 EML-ALK^L1196M IC50.

A value given as a limit tells only on which side of the number the result lay.

For `[2H]C([2H])(c1cc(F)cc(F)c1)c1ccc2[nH]nc(NC(=O)c3ccc(N4CCN(C([2H])([2H])[2H])CC4)cc3NC3CCOCC3)c2c1` [Compound T-11, N-(5-((3,5-difluorophenyl)methyl-d2)-1H-indazol-3-yl)-4-(4-(methyl-d3)piperazin-1-yl)-2-((tetrahydro-2H-pyran-4-yl)amino)benzamide], the microsomal CLint at 1 μM in data set [1] was found to be 31 µL/min/mg; in data set [2] it was 45 µL/min/mg. Moreover, the half-life at 1 μM came out at 44.6 min in data set [1] and 30.8 min in data set [2]. Besides, the figures for the IC50 (in the data set with Ba/F3 EML-ALK cells; in data set [3]) were 10 to 50 nM and more than 200 nM, respectively.
With `[2H]c1c(F)cc(Cc2ccc3[nH]nc(NC(=O)c4ccc(N5CCN(C)CC5)cc4NC4CCOCC4)c3c2)cc1F` [Compound T-9], the microsomal CLint at 1 μM in data set [1] worked out at 33.7 µL/min/mg; in data set [2], 47.5 µL/min/mg. Also, the half-life at 1 μM in data set [1] was determined as 41.1 min; in data set [2], 29.2 min. Besides, the IC50 in the data set on Ba/F3 EML-ALK cells is 50 to 150 nM; in data set [3] it was more than 200 nM.
Consider `[2H]c1cc(C(=O)Nc2n[nH]c3ccc(Cc4cc(F)cc(F)c4)cc23)c(NC2CCOCC2)c([2H])c1N1CCN(C([2H])([2H])[2H])CC1` [Compound T-5, N-(5-(3,5-difluorobenzyl)-1H-indazol-3-yl)-4-(4-(methyl-d3)piperazin-1-yl)-2-((tetrahydro-2H-pyran-4-yl)amino)benzamide-3,5-d2], for which the microsomal CLint at 1 μM in data set [1] turned out to be 31 µL/min/mg; in data set [2] it was 48.2 µL/min/mg. The half-life at 1 μM in data set [1] is 44.7 min; in data set [2] it was 28.8 min. For the same compound, the IC50 is 50 to 150 nM with Ba/F3 EML-ALK cells and more than 200 nM in data set [3].
For the compound `[2H]c1cc(C(=O)Nc2n[nH]c3ccc(Cc4cc(F)cc(F)c4)cc23)c(NC2CCOCC2)c([2H])c1N1CCN(C)CC1` [Compound T-4, N-(5-(3,5-difluorobenzyl)-1H-indazol-3-yl)-4-(4-methylpiperazin-1-yl)-2-((tetrahydro-2H-pyran-4-yl)amino)benzamide-3,5-d], the microsomal CLint at 1 μM in data set [1] came out at 21.9 µL/min/mg; in data set [2] it was 36.2 µL/min/mg. Besides, the half-life at 1 μM in data set [1] was 63.3 min; in data set [2], 38.3 min. Moreover, the IC50 in the data set on Ba/F3 EML-ALK cells is 50 to 150 nM; in data set [3], more than 200 nM.
Turning to `[2H]c1cc(C(=O)Nc2n[nH]c3ccc(Cc4cc(F)cc(F)c4)cc23)c(NC2CCOCC2)c([2H])c1N1C([2H])([2H])C([2H])([2H])N(C([2H])([2H])[2H])C([2H])([2H])C1([2H])[2H]` [Compound T-6, N-(5-(3,5-difluorobenzyl)-1H-indazol-3-yl)-4-(4-(methyl-d3)piperazin-1-yl-2,2,3,3,5,5,6,6-d8)-2-((tetrahydro-2H-pyran-4-yl)amino)benzamide-3,5-d2], the microsomal CLint at 1 μM was determined as 29.7 µL/min/mg in data set [1] and 42.5 µL/min/mg in data set [2]. Further, the half-life at 1 μM is 46.7 min in data set [1] and 32.6 min in data set [2]. Also, the results for the IC50 (with Ba/F3 EML-ALK cells; in data set [3]) were 50 to 150 nM and more than 200 nM, respectively.
